The structures appear in SMILES notation. Where a chain is given by its changes, count along the chain named. Some results are limits rather than exact numbers.

Experiment [1] has as its target T1, Aldo-keto reductase family 1 member B1 (Homo sapiens, UniProt P15121). Nature of the experiment: Inhibition of recombinant human AKR1B1 using pyridine-3-aldehyde as substrate.
Experiment [2] concerns the target T2, Aldo-keto reductase family 1 member B10 (Homo sapiens, UniProt O60218). Nature of the experiment: Inhibition of recombinant human AKR1B10 using pyridine-3-aldehyde as substrate.
In experiment [3] the target is T3, Aldo-keto reductase family 1 member C1 (Homo sapiens, UniProt Q04828).
T3 sequence (Q04828 whole entry): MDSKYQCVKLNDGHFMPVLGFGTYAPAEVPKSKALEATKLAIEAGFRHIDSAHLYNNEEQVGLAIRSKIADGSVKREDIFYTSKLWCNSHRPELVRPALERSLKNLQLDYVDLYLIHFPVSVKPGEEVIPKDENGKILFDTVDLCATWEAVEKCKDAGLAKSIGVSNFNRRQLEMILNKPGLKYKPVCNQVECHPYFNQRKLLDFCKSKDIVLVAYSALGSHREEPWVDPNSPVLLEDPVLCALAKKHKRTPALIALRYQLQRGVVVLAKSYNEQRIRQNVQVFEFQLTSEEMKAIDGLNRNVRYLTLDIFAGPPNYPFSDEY
Nature of the experiment: Inhibition of recombinant human AKR1C1 using S-tetralol as substrate.

Experiment [4] can be described thus: Competitive inhibition of recombinant human AKR1B10 Trp220Tyr mutant in presence of geraniol as substrate by Lineweaver-Burk plot method.
For experiment [5], the target named is T4, Aldo-keto reductase family 1 member C2 (Homo sapiens, UniProt P52895).
T4 sequence (P52895 whole entry): T3 sequence (Q04828 whole entry) with T38V, R47H, L54V, C87S, V151M, R170H, Q172L
Briefly: Inhibition of recombinant human AKR1C2 using S-tetralol as substrate.

For experiment [6], the target named is T2, Aldo-keto reductase family 1 member B10. Nature of the experiment: Competitive inhibition of recombinant human AKR1B10 in presence of geraniol as substrate by Lineweaver-Burk plot method.
For experiment [7], the target named is T5, Aldo-keto reductase family 1 member C3 (Homo sapiens, UniProt P42330).
T5 sequence (P42330 whole entry): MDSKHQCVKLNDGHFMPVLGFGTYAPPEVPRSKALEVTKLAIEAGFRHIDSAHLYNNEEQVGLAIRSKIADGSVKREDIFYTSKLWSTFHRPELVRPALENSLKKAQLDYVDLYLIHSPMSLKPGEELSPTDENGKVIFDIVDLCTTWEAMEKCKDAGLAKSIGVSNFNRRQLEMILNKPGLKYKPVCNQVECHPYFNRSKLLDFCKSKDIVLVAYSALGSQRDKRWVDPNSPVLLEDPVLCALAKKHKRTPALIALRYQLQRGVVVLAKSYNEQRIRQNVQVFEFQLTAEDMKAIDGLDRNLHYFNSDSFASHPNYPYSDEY
Briefly: Inhibition of recombinant human AKR1C3 using S-tetralol as substrate.

Experiment [8] is described as follows: Competitive inhibition of recombinant human AKR1B10 Lys125Leu mutant in presence of geraniol as substrate by Lineweaver-Burk plot method.
Experiment [9] is described as follows: Competitive inhibition of recombinant human AKR1B10 Val301Leu mutant in presence of geraniol as substrate by Lineweaver-Burk plot method.
For experiment [10], the target named is T6, Aldo-keto reductase family 1 member A1 (Homo sapiens, UniProt P14550).
T6 sequence (P14550 whole entry): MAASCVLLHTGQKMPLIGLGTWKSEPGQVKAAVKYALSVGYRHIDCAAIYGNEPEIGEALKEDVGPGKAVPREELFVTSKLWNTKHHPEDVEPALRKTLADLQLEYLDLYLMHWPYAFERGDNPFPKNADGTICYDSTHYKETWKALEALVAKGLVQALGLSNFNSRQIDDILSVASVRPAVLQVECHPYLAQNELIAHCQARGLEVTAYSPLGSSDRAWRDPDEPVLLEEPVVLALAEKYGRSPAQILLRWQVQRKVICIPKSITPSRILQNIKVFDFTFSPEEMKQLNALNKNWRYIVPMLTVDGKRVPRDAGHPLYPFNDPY
Briefly: Inhibition of recombinant human AKR1A1 using pyridine-3-aldehyde as substrate.

Experiment [11] deals with T7, Aldo-keto reductase family 1 member C4 (Homo sapiens, UniProt P17516).
T7 sequence (P17516 whole entry): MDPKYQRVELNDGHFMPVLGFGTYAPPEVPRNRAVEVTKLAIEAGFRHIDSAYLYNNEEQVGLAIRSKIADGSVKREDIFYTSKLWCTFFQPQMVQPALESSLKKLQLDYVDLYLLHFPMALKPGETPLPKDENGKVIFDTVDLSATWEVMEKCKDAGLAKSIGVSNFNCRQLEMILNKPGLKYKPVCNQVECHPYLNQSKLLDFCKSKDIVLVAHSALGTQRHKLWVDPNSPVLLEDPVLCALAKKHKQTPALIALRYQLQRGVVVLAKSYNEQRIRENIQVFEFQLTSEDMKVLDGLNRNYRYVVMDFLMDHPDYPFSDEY
Briefly: Inhibition of recombinant human AKR1C4 using S-tetralol as substrate.

Experiment [12] addresses T8, Carbonyl reductase [NADPH] 1 (Homo sapiens, UniProt P16152).
T8 sequence (P16152 whole entry): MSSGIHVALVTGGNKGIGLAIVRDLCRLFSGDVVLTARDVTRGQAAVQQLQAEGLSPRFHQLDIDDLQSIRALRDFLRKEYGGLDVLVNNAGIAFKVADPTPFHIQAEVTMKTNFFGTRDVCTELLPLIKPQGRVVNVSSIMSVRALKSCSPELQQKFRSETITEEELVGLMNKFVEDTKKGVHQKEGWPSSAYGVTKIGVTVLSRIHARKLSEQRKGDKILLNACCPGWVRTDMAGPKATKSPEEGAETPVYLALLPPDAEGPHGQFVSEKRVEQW
Nature of the experiment: Inhibition of recombinant human CBR1 using isatin as substrate.

The nature of experiment [13]: Competitive inhibition of recombinant human AKR1B10 Gln303Ser mutant in presence of geraniol as substrate by Lineweaver-Burk plot method.
For experiment [14], the target named is T2, Aldo-keto reductase family 1 member B10. Nature of the experiment: Inhibition of human recombinant AKR1B10 (1 to 316 residues) expressed in Escherichia coli using pyridine-3-aldehyde as substrate.
The target in experiment [15] is T1, Aldo-keto reductase family 1 member B1. Briefly: Inhibition of human recombinant AKR1B1 (1 to 316 residues) expressed in Escherichia coli using pyridine-3-aldehyde as substrate.
Experiment [16] has the same target. Nature of the experiment: Inhibition of AKR1B1 (unknown origin).
For experiment [17], the target named is T2, Aldo-keto reductase family 1 member B10. Nature of the experiment: Inhibition of AKR1B10 (unknown origin).
Experiment [18] addresses T1, Aldo-keto reductase family 1 member B1. Nature of the experiment: Inhibition of recombinant human AKR1B1 using pyridine-3-aldehyde as substrate by fluorescence assay.
For experiment [19], the target named is T2, Aldo-keto reductase family 1 member B10. Briefly: Inhibition of recombinant human intestinal N-terminal 6-His-tagged AKR1B10 expressed in Escherichia coli BL21 (DE3) pLysS cells using pyridine-3-aldehyde as substrate by fluorescence assay.

T2 sequence (O60218 whole entry): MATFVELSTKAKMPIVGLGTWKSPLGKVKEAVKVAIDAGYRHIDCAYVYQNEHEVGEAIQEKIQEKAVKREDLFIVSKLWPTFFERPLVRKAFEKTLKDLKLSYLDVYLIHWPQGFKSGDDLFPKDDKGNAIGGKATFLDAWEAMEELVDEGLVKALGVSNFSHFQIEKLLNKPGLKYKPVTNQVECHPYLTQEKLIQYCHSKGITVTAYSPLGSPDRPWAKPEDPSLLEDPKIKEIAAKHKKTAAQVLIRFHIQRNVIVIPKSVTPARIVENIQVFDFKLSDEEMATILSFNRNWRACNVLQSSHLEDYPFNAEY

A word on the IC50: it is the concentration at which inhibition is half-maximal. With `O=C(NCCc1ccc(O)cc1)c1cc2ccc(O)cc2oc1=O`, the IC50 in [1] is 0.098 µM; in [2], 0.02 µM.

`O=C(NCCCc1cccc(F)c1)c1cc2ccc(O)cc2oc1=O`: the figures for the 50% inhibitory concentration (IC50) in [1] and in [2] were 0.34 µM and 0.006 µM, respectively.

Turning to `Cc1ccc(CCCNC(=O)c2cc3ccc(O)cc3oc2=O)cc1`, the IC50 in experiment [1] is 0.2 µM; in experiment [2], 0.007 µM.

Take `O=C(NCCCc1cc(F)cc(F)c1)c1cc2ccc(O)cc2oc1=O`: the IC50 in [1] came to 0.32 µM; in experiment [2], 0.0078 µM.

As for `O=C(NCCCCc1ccc(O)cc1)c1cc2ccc(O)cc2oc1=O`, the IC50 in experiment [1] stood at 0.314 µM; in experiment [2], 0.011 µM.

For `O=C(NCCCc1cccc(O)c1)c1cc2ccc(O)cc2oc1=O`, the results for the 50% inhibitory concentration (IC50) in [1] and in [2] were 0.18 µM and 0.0083 µM, respectively.

In the case of `O=C(NCCCc1ccc(O)cc1)c1cc2cccc(O)c2oc1=O`, the IC50 turned out to be 9.5 µM in experiment [1] and 1.5 µM in [2].

By Ki is commonly meant a dissociation constant, usually derived from enzyme kinetics or from competition with a known ligand. As for `O=C(NCCCc1ccc(O)cc1)c1cc2ccc(O)cc2oc1=O`, the IC50 was determined as 0.95 µM in [3]; 0.204 µM in experiment [1]; 0.97 µM in [5]; 1.6 µM in [7]; 1.5 µM in experiment [10]; 0.82 µM in experiment [11]. In addition, the half-maximal inhibitory concentration (IC50) in [12] came out at 4.2 µM; in experiment [2], 0.0042 µM. Moreover, the Ki in experiment [4] was 0.014 µM; in experiment [6], 0.0023 µM; in [8], 0.0069 µM; in experiment [9], 0.0098 µM; in [13], 0.0025 µM.

With `C[C@@]12CCC[C@H]1[C@@H]1C[C@@H](O)[C@@]3(O)C[C@@H](O)CC[C@]3(CO)[C@H]1CC2`, the figures for the concentration for half-maximal inhibition (IC50) in [14] and in [15] were 0.83 µM and more than 100 µM, respectively.

Regarding `COc1ccc(CCCNC(=O)c2cc3ccc(O)cc3oc2=O)cc1`, the figures for the concentration for half-maximal inhibition (IC50) in [1] and in experiment [2] were 0.39 µM and 0.011 µM, respectively.

With `COc1ccc(/N=c2\oc3cc(O)ccc3cc2C(=O)NCCCc2cccc(O)c2)cc1`, the concentration for half-maximal inhibition (IC50) in [1] was found to be 0.015 µM; in experiment [2], 0.0075 µM.

Turning to `O=C(NCCCc1ccc(F)cc1)c1cc2ccc(O)cc2oc1=O`, the half-inhibitory concentration (IC50) in experiment [3] amounted to 12 µM; in [1], 0.277 µM; in [5], 0.61 µM; in experiment [7] it was 0.47 µM; in experiment [10] it was 1.7 µM; in experiment [11], 0.35 µM. For the same compound, the half-maximal inhibitory concentration (IC50) in experiment [12] was found to be 1.1 µM; in experiment [2] it was 0.0035 µM.

Turning to `O=C(NCCCc1ccc(O)cc1)c1cc2ccccc2oc1=O`, the values for the IC50 in [1] and in experiment [2] were more than 10 µM and 2.7 µM, respectively.

As for `O=C(NCCCc1ccccc1O)c1cc2ccc(O)cc2oc1=O`, the IC50 was determined as 0.22 µM in [1] and 0.0064 µM in [2].

Take `O=C(/C=C/c1ccc(O)cc1)CC(=O)/C=C/c1ccc(O)cc1` [BISDEMETHOXYCURCUMIN]: the IC50 in experiment [16] came out at 5.1 µM; in experiment [17], 0.06 µM.

For `C[C@H](CCC(=O)O)[C@H]1CC[C@H]2[C@@H]3CC[C@@H]4C[C@@H](O)CC[C@]4(C)[C@H]3CC[C@]12C` [ISOLITHOCHOLIC ACID], the results for the IC50 in [18] and in experiment [19] were 6.9 µM and 0.027 µM, respectively.

Source of the values: ChEMBL document CHEMBL4017540, “Synthesis of Potent and Selective Inhibitors of Aldo-Keto Reductase 1B10 and Their Efficacy against Proliferation, Metastasis, and Cisplatin Resistance of Lung Cancer Cells” (J Med Chem, 2017).
